This note sets out measurements from paper PMC5522529, “Mechanisms of Paradoxical Activation of AMPK by the Kinase Inhibitors SU6656 and Sorafenib” (Cell Chemical Biology, 2017).

The target of one test is T1, α2-KD (Homo sapiens, UniProt P54646).
T1 construct: amplifying residues 1-310 with 5' BamH1 and 3' Xho1 sites; made in house; host or cells: bacteria
The experiment in a line: Inactivation of α2-KD by PP2Cα. The format is biochemical. The settings on record: 5 mM ATP, AMP 2 mM, SU6656 up to 10 μM. How it is done: Figure 5 SU6656 Promotes AMPK Activation by Binding to the Catalytic Site: Studies in Cell-Free Assays (A) Effect of increasing concentrations of SU6656 ± 1 mM AMP in the presence of 2 mM ATP on the activity of purified rat liver AMPK. (B) Effect of ATP concentration on kinase activity of α2-KD in the presence of increasing concentrations of SU6656. Results (mean, n = 2) were fitted to the equation Y= (Vmax × X)/(Km × (1 + I/Ki) + X), where Y is the activity, X is the ATP concentration, I is the concentration of SU6656, and Ki is the inhibitory constant for SU6656. The curves were generated using this equation with the best-fit values of Vmax, Km, and Ki (shared between all four curves) quoted in the main text. (C) Inhibition of phosphorylated α2-KD (WT or AT mutant) by SU6656. […] The reduced inhibition at 10 μM SU6656 may be due to the inhibitor coming out of solution, so those data were not used for curve fitting. (D and E) Effect of increasing concentrations of SU6656 on activity (D) and Thr172 phosphorylation (E) induced by LKB1 with unphosphorylated α2-KD (WT/AT mutant). Results in (D) are mean ± SEM (n = 3); and were fitted to same equation as Figure 4C. […] The complexes (which have low basal phosphorylation due to lack of LKB1 in HeLa cells) were incubated with or without a limiting amount of LKB1, AMP (200 μM) or SU6656 (3 μM) for 10 min and AMPK activity determined. […]

Another test addresses T2, LKB1 (Homo sapiens, UniProt Q15831).
T2 construct: made in house; host or cells: Sf9 cells
The experiment in a line: LKB1 assay using LKBtide peptide substrate. The format is biochemical. The settings on record: alternative peptide substrate (LKBtide). On the procedure:
We next used unphosphorylated α2-KD and tested the effect of SU6656 on its activation and phosphorylation by LKB1. […] There was no effect of SU6656 when LKB1 was assayed using an alternative peptide substrate (Figure S3), confirming that it acts by binding to AMPK rather than to LKB1. The half-maximal effect of SU6656 on α2-KD activation was at 0.20 ± 0.02 μM, close to the IC50 for inhibition of catalytic activity (0.22 ± 0.02 μM).
Endogenous AMPK was immunoprecipitated using the specified antibodies (for total AMPK, an equal mixture of anti-α1 and –α2 antibodies) and assayed at 200 μM ATP ([Hardie et al., 2000], [Towler et al., 2008]) using the AMARA peptide ([Dale et al., 1995]) as substrate, except for assays of allosteric activation by AMP (Figure 5A) where the SAMS peptide was used as substrate with 2 mM ATP ([Gowans et al., 2013]). The AMPK-related kinases SIK1, SIK2, SIK3, SNARK, MARK2/3 and MARK4 were immunoprecipitated and assayed as previously described ([Lizcano et al., 2004]) in lysates of Hela cells stably expressing LKB1 ([Fogarty et al., 2010]). LKB1 was assayed using the LKBtide peptide as substrate ([Sakamoto et al., 2004]).
LKB1 was assayed using the LKBtide peptide as substrate as
described in the Star Methods section.

The target of test [1] is T3, human AMPK-α2 Y436F mutant (Homo sapiens, UniProt P54646, Y436F).
T3 construct: expressed in transfected cells; host or cells: HEK293 (transient transfection)
The experiment in a line: AMPK activity of FLAG-tagged Y436F AMPK-α2 expressed in HEK293 cells. The format is cell-based. The settings on record: SU6656 100 μM, phenformin 10 mM, A23187 10 μM, 1 hr. How it is done:
Top: AMPK activity (mean ± SEM, n = 4); bottom: western blots showing phosphorylation of Thr172 on AMPK, and of ERK1/2, in cells treated with DMSO (control), SU6656 (100 μM), or PP2 (100 nM) (n = 2). (B) As (A), but in SYF cells. (C) HeLa cells were transfected with DNAs encoding GFP alone, or GFP fused to WT, Y261F/Y365F (FF), or Y36F/Y261F/Y365F (FFF) mutants of LKB1; cells were treated with increasing concentrations of SU6656 for 1 hr and AMPK activity determined (mean ± SEM, n = 4). See also Figure S1. (D) HEK293 cells were transfected with DNAs encoding FLAG-tagged AMPK-α2 with or without a Y436F mutation. Cells were incubated with DMSO (control), 100 μM SU6656, 10 mM phenformin, or 10 μM A23187 for 1 hr; AMPK complexes were immunoprecipitated using anti-FLAG antibody and assayed. The top panels show kinase activities (mean ± SD, n = 3); the bottom panels show blots from the same experiment (n = 2). In all panels, asterisks indicate significant differences from DMSO controls; in (D), there were no significant differences between the WT and Y463F mutant. **p < 0.01, ****p < 0.0001.

T3 sequence (P54646 whole entry Y436F): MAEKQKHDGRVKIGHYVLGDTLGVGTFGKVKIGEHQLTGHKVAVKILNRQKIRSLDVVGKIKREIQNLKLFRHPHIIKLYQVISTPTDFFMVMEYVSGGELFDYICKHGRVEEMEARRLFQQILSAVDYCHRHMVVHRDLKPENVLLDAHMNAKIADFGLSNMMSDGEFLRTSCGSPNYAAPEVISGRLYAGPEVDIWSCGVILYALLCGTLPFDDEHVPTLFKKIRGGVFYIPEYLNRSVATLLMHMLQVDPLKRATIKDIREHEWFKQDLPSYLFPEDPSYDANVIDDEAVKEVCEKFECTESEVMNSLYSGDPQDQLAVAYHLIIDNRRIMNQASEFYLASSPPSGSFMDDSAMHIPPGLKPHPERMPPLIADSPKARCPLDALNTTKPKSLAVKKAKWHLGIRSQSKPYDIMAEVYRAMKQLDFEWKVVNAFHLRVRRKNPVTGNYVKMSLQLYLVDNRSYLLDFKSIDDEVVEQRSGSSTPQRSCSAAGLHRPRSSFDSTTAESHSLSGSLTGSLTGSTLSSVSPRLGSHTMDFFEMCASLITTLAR
T3 sequence (P54619 whole entry partner): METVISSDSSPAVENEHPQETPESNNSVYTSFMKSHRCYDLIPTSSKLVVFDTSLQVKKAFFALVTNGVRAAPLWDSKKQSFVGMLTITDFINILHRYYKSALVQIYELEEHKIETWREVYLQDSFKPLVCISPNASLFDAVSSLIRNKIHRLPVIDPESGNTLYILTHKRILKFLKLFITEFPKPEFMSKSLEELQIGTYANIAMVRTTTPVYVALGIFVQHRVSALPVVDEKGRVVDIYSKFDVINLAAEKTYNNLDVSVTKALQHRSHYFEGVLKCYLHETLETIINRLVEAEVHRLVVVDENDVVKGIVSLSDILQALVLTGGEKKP
T2 sequence (Q15831 whole entry): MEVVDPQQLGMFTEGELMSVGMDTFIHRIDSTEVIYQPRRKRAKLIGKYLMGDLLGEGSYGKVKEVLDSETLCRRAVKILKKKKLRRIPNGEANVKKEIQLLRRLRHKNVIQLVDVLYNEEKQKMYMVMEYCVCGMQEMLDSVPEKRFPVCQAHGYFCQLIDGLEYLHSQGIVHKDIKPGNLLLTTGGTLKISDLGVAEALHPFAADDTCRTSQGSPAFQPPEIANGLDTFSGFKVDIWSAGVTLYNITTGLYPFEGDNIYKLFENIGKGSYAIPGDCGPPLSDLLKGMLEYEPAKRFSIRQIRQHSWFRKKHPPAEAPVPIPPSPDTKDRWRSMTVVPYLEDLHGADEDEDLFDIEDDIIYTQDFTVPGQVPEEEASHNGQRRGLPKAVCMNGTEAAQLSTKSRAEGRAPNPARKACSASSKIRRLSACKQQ
T2 sequence (Q7RTN6 whole entry partner): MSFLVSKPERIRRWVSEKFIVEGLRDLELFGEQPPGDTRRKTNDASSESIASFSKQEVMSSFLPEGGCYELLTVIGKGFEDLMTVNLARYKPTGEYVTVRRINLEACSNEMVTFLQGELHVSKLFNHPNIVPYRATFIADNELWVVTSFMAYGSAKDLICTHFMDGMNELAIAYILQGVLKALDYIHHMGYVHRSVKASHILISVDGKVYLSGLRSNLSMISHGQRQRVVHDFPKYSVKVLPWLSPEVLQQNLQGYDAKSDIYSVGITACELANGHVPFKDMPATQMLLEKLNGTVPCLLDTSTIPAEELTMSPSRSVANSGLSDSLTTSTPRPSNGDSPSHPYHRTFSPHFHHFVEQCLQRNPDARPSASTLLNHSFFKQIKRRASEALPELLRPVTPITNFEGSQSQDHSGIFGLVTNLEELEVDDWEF
T2 sequence (Q9Y376 whole entry partner): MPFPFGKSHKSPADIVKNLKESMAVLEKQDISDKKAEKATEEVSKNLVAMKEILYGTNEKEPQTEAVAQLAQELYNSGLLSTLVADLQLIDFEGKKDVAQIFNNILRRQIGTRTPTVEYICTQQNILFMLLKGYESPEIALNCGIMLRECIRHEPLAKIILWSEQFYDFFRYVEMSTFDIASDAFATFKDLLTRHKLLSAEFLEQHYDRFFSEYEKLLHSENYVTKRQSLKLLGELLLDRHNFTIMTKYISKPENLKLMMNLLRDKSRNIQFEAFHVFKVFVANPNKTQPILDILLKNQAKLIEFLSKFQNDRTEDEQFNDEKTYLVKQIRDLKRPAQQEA
T1 sequence (P54646 1-310): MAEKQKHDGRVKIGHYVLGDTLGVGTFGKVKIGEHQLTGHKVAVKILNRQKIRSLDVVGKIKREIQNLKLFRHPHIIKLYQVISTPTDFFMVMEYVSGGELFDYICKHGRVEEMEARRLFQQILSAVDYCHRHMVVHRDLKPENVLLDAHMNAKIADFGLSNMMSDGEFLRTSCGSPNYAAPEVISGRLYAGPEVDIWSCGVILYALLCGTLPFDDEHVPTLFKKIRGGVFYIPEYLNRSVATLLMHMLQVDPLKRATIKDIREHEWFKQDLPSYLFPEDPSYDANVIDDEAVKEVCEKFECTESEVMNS

Take `CN(C)S(=O)(=O)c1ccc2c(c1)/C(=C/c1cc3c([nH]1)CCCC3)C(=O)N2` [SU6656]: at α2-KD, the “protection against inactivation by PP2Cα” value is given as “did not protect against inactivation”. The “effect on LKB1 activity” value on LKB1 is “no effect”. The “AMPK activation response with Y436F mutation” value in test [1] was “unaffected by the Y436F mutation”.
